Earlier results in US20250074935A1, “HETERODIMER COMPOSITIONS AND METHODS FOR THE TREATMENT OF OCULAR DISORDERS” (Ripple Therapeutics Corporation, priority 2020, published 2025).

Conditions: given once a day

CC(C)OC(=O)CCC/C=C\C[C@@H]1[C@@H](CC[C@@H](O)CCc2ccccc2)[C@H](O)C[C@@H]1O [latanoprost]
mean IOP lowering: about 35%
